Target: T1, Nox4 (Homo sapiens, UniProt Q9NPH5)
T1 construct: Plasmids encoding full-length human cDNAs for Nox1 (pcDNA3.1-hNox1), NOXO1 (pcDNA3.1-hNOXO1), NOXA1 (pCMVsport 6-hNOXA1), p47phox (pCMV-Tag4A-hp47) and Nox4 (pcDNA3-hNox4); expressed in transfected cells; host or cells: COS-22 (COS-7 stably expressing human p22phox), transient transfection with pcDNA3.1/Hygro-hNox4
T1 sequence (Q9NPH5 1-578): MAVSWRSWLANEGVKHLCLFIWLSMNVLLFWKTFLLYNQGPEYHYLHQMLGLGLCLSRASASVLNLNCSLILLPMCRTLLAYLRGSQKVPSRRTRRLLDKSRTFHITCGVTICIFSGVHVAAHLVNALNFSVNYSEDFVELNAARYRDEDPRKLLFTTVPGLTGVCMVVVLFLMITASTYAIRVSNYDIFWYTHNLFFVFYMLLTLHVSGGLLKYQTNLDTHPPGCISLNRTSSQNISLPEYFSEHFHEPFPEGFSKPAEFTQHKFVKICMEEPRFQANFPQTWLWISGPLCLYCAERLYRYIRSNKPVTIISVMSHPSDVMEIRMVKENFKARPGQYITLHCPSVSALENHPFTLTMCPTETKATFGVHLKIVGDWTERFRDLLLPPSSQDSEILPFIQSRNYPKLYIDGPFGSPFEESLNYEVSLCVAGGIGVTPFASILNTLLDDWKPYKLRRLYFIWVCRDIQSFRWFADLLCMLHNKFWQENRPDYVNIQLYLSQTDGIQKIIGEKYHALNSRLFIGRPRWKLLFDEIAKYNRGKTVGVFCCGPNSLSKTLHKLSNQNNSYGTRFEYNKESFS
T1 sequence (P13498 2-195 partner limits assumed): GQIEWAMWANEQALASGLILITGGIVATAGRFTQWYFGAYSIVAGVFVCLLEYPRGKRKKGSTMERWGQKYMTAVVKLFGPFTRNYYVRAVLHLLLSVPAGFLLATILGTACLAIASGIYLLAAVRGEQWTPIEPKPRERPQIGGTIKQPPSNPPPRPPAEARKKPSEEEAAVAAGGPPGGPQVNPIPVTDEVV
Assay: Constitutive Nox4 activity in transiently transfected COS-Nox4 cells, Amplex Red assay
Format: cell-based
Settings: for Nox4 inhibitory activity: COS-Nox4 cells; for IC50: constitutive activity, transiently transfected COS-Nox4 cells, read-out: IC50 of ROS generation, Nox4 (Amplex Red assay)
Source text: Plasmids encoding full-length human cDNAs for Nox1 (pcDNA3.1-hNox1), NOXO1 (pcDNA3.1-hNOXO1), NOXA1 (pCMVsport 6-hNOXA1), p47phox (pCMV-Tag4A-hp47) and Nox4 (pcDNA3-hNox4) were kindly provided by Dr. David Lambeth (Emory University, Ga.). Plasmids encoding Nox1, NOXO1, or NOXA1 were transformed and amplified into Escherichia coli strain TOP10 (Invitrogen, Carlsbad, Calif.). Plasmids were purified using a QIAfilter plasmid purification kit (QIAGEN Inc., Valencia, Calif.). For human Nox4 expression, the BglII/NotI restriction fragment from the pcDNA3-hNox4 was subcloned into the plasmid pcDNA3.1/Hygro(−) (Invitrogen, Carlsbad, Calif.) to generate pcDNA3.1/Hygro-hNox4. The fragment sequence, in-frame insertion and orientation were validated by DNA sequencing after PCR amplification. pcDNA3.1/Hygro-hNox4 was amplified into Escherichia coli strain TOP10 and purified with a QIAfilter plasmid purification kit.
Cell transfection was carried out using Lipofectamine LTX and Plus reagent (Invitrogen, Carlsbad, Calif., USA), according to the manufacturer's instructions. COS-22 cells were transiently co-transfected with pcDNA 3.1-hNox1, pCMVsport 6-hNOXA1 and pcDNA3.1-hNoxO1 (COS-Nox1/NOXO1/NOXA1 cells) or with pcDNA3.1/Hygro-hNox4 (COS-Nox4 cells). Cells were used 24 hr after transfection. Adherent cells were harvested by incubating with 0.05% trypsin/EDTA for 5 min at 37° C. Following addition of DMEM/10% FBS to neutralize the trypsin, the cells were pelleted by centrifugation at 1100×g for 5 min at 4° C. and used for the experiments.
H2O2 production was quantified in intact COS-Nox4 cells by Amplex® Red. Briefly, COS-Nox4 cells (5×10^4 cells/ml) were re-plated into 384-well plate in assay buffer (25 mM Hepes, pH 7.4, containing 0.12 M NaCl, 3 mM KCl, 1 mM MgCl2). The cells were incubated in the presence or absence of drugs at 37° C. in assay buffer supplemented with 0.1 mM Amplex® Red, and 0.32 U/ml of horse radish peroxidase (HRP) for 15 min. Fluorescence measurements were made using a Biotek Synergy 4 Hybrid Multi-Mode Microplate Reader with a 530/25-excitation and a 590/35-emission filter. The reaction was monitored at 37° C. for 1 h. A standard curve of known H2O2 concentrations was included on each plate. Nox4 activity was obtained by calculating the rate of H2O2 production as RFU/min and then subtracting the equivalent value given by non-transfected COS-22 cells. Similarly, H2O2 production by Nox2 cells was also measured by Amplex® Red as described above but in the presence of 150 U/mL of SOD and the reaction was initiated by addition of 5 μM PMA. The rate of H2O2 production in this case was calculated as RFU/min after the subtraction of the equivalent value given by non-stimulated cells. Data are expressed as % of vehicle control.
All data are expressed as means±SEM. IC50 values were determined using the GraphPad Prism software (GraphPad Software, San Diego, Calif.) for non-linear regression three-parameters, with constrain values of 100 and 0 for top and bottom, respectively, and assumes a Hill slope of 1.

| Structure (SMILES) | IC50 | Nox4 inhibitory activity |
| --- | --- | --- |
| C=C(C)CC1NC2CC(C)(C)C1c1c(Br)cccc12 (racemic) [Compound 7, (±)-(1S,4R,9S)-5-Bromo-3,3-dimethyl-9-(2-methylallyl)-1,2,3,4-tetrahydro-1,4-(epimino-methano)-naphthalene] | > 100 µM | inactive |
| C=C(C)CC1NC2CC(C)(C)C1c1ccccc12 (racemic) [Compound 8, (±)-(1S,4R,9S)-3,3-Dimethyl-9-(2-methylallyl)-1,2,3,4-tetrahydro-1,4-(epiminomethano)-naphthalene] | – | inactive |
| C=C(C)CC1C2c3ccccc3C(CC2(C)C)N1Cc1cccc(F)c1 (racemic) [Compound 11a, (±)-(1S,4R,9S)-10-(3-Fluorobenzyl)-3,3-dimethyl-9-(2-methylallyl)-1,2,3,4-tetrahydro-1,4-(epiminomethano)naphthalene] | > 100 µM | – |
| C=C(C)CC1C2c3c(Br)cccc3C(CC2(C)C)N1Cc1ccc2c(c1)OCO2 (racemic) [Compound 11d, (±)-(1S,4R,9S)-10-(Benzo[d][1,3]dioxol-5-ylmethyl)-5-bromo-3,3-dimethyl-9-(2-methylallyl)-1,2,3,4-tetrahydro-1,4-(epiminomethano)naphthalene] | > 100 µM | – |
| C=C(C)CC1C2c3c(Br)cccc3C(CC2(C)C)N1Cc1cc(C)on1 (racemic) [Compound 11e, (±)-3-(1S,4R,9S)-5-Bromo-3,3-dimethyl-9-(2-methylallyl)-1,2,3,4-tetrahydro-1,4-(epimino-methano) naphthalen-10-yl)methyl)-5-methylisoxazole] | > 100 µM | – |
| C=C(C)CC1C2c3c(Br)cccc3C(CC2(C)C)N1Cc1cccc(F)c1 (racemic) [Compound 11f, (±)-(1S,4R,9S)-5-Bromo-10-(3-fluorobenzyl)-3,3-dimethyl-9-(2-methylallyl)-1,2,3,4-tetrahydro-1,4-(epiminomethano)naphthalene] | > 100 µM | – |
| C=C(C)CC1C2c3c(Br)cccc3C(CC2(C)C)N1CCCCC (racemic) [Compound 11g, (±)-(1S,4R,9S)-5-Bromo-3,3-dimethyl-9-(2-methylallyl-10-pentyl-1,2,3,4-tetrahydro-1,4-(epiminomethano)naphthalene] | > 100 µM | virtually no effect |
| C=C(C)CC1C2c3c(Br)cccc3C(CC2(C)C)N1Cc1cccs1 (racemic) [Compound 11h, (±)-(1S,4R,9S)-5-Bromo-3,3-dimethyl-9-(2-methylallyl)-10-(thiophen-2-ylmethyl)-1,2,3,4-tetrahydro-1,4-(epiminomethano)naphthalene] | – | virtually no effect |
| CC(C)CC1NC2CC(C)(C)C1c1c(Br)cccc12 (racemic) [Compound 13] | > 100 µM | – |

The next lines start with results.

| IC50 | Structure (SMILES) | Nox4 inhibitory activity |
| --- | --- | --- |
| > 100 µM | C=C(C)CC1NC2CC(C)(C)C1c1c(-c3ccc(Cl)c(Cl)c3)cccc12 (racemic) [Compound 12a, (±)-(1S,4R,9S)-5-(3,4-Dichlorophenyl)-3,3-dimethyl-9-(2-methylallyl)-1,2,3,4-tetrahydro-1,4-(epiminomethano)naphthalene] | – |
| > 100 µM | C=C(C)CC1C2c3c(-c4ccc(Cl)c(Cl)c4)cccc3C(CC2(C)C)N1CCCCC (racemic) [Compound 12c] | – |
| > 100 µM | C=C(C)CC1C2c3c(Br)cccc3C(CC2(C)C)N1S(C)(=O)=O (racemic) [Compound 14a, (±)-(1S,4R,9S)-5-Bromo-3,3-dimethyl-9-(2-methylallyl)-10-(methylsulfonyl)-1,2,3,4-tetrahydro-1,4-(epiminomethano)naphthalene] | – |
